In ChEMBL document CHEMBL1140192, “Sorocenols G and H, anti-MRSA oxygen heterocyclic Diels-Alder-type adducts from Sorocea muriculata roots” (J Nat Prod, 2008):
pIC50: −log10 of the molar value. ≈ marks a conversion by molar mass, not a printed value. Calls of active or inactive are those of the source. No cut-off for these calls is given here.

What was measured:
Type in all cases: functional, organism-based
Cryptococcus neoformans = experiment: Antifungal activity against Cryptococcus neoformans ATCC 90113 after 68 to 72 hrs
Candida albicans = experiment: Antifungal activity against Candida albicans ATCC 90028 after 18 to 24 hrs
Aspergillus fumigatus = experiment: Antifungal activity against Aspergillus fumigatus ATCC 90906 after 68 to 72 hrs
Staphylococcus aureus = experiment: Antibacterial activity against methicillin-resistant Staphylococcus aureus ATCC 43300 after 18 to 24 hrs
[1] = test system: Mycobacterium intracellulare; experiment: Antibacterial activity against Mycobacterium intracellular ATCC 23068 at 20 ug/mL after 68 to 72 hrs
Pseudomonas aeruginosa = experiment: Antibacterial activity against Pseudomonas aeruginosa ATCC 27853 at 20 ug/mL after 18 to 24 hrs
Escherichia coli = experiment: Antibacterial activity against Escherichia coli ATCC 35218 at 20 ug/mL after 18 to 24 hrs

Row | Compound | pIC50 (Cryptococcus neoformans) | MFC (Cryptococcus neoformans) [µM] | MIC (Cryptococcus neoformans) [µM] | pIC50 (Candida albicans) | MFC (Candida albicans) [µM] | MIC (Candida albicans) [µM] | pIC50 (Aspergillus fumigatus) | MFC (Aspergillus fumigatus) [µM] | MIC (Aspergillus fumigatus) [µM] | Activity (Staphylococcus aureus) | MIC (Staphylococcus aureus) [µM] | Activity [1] | Activity (Pseudomonas aeruginosa) | Activity (Escherichia coli) | Activity (Cryptococcus neoformans) | Activity (Candida albicans) | pIC50 (Staphylococcus aureus) | MBC (Staphylococcus aureus) [µM] | Activity (Aspergillus fumigatus)
1 | C[C@@H]1[C@H](O)[C@@H](C)/C=C/C=C/C=C/C=C/C=C/C=C/C=C/[C@H](O[C@@H]2O[C@H](C)[C@@H](O)[C@H](N)[C@@H]2O)C[C@@H]2O[C@](O)(C[C@@H](O)C[C@@H](O)[C@H](O)CC[C@@H](O)C[C@@H](O)CC(=O)O[C@H]1C)C[C@H](O)[C@H]2C(=O)O [AMPHOTERICIN B] | 6.05 | 2.5 (≈ 2.31 µg/mL) | 1.4 (≈ 1.29 µg/mL) | 6.52 | 1.4 (≈ 1.29 µg/mL) | 0.7 (≈ 0.647 µg/mL) | 5.80 | 2.7 (≈ 2.5 µg/mL) | 2.7 (≈ 2.5 µg/mL) | – | – | – | – | – | – | – | – | – | –
2 | O=C(O)c1cn(C2CC2)c2cc(N3CCNCC3)c(F)cc2c1=O [CIPROFLOXACIN] | – | – | – | – | – | – | – | – | – | inactive | 0.8 (≈ 0.265 µg/mL) | – | – | – | – | – | – | – | –
3 | CC1=C[C@@H]2c3c(O)cc(-c4cc5ccc(O)cc5o4)cc3O[C@]3(c4ccc(O)c5c4OC(C)(C)C=C5)Oc4cc(O)ccc4[C@H](C1)[C@@H]23 [SOROCENOL G] | – | – | – | – | – | – | – | – | – | – | 4 (≈ 2.51 µg/mL) | inactive | inactive | inactive | Active | Active | 5.82 | 31.8 (≈ 20 µg/mL) | inactive
4 | CC(C)=CCc1c(O)ccc(C(=O)[C@H]2[C@H](c3c(O)cc(-c4cc5ccc(O)cc5o4)cc3O)C=C(C)C[C@H]2c2ccc(O)cc2O)c1O [SOROCENOL H] | 5.27 | 7.7 (≈ 5 µg/mL) | 7.7 (≈ 5 µg/mL) | 5.27 | 30.8 (≈ 20 µg/mL) | 15.4 (≈ 9.99 µg/mL) | 5.00 | 30.8 (≈ 20 µg/mL) | 15.4 (≈ 9.99 µg/mL) | – | 1.9 (≈ 1.23 µg/mL) | inactive | inactive | inactive | – | – | 6.30 | 30.8 (≈ 20 µg/mL) | –
